Laboratory results taken from ChEMBL document CHEMBL1156106 (J Med Chem, 2009).

Assays:
[1] = biological target: Sodium-dependent dopamine transporter (Homo sapiens, UniProt Q01959); experiment: Displacement of [125I]RTI55 from cloned human DAT expressed in HEK293 cells; type: cell-based
[2] = biological target: T1, Sodium-dependent serotonin transporter (Homo sapiens, UniProt P31645); experiment: biochemical; type: cell-based, HEK293
[3] = biological target: Sodium-dependent noradrenaline transporter (Homo sapiens, UniProt P23975); experiment: Displacement of [125I]RTI55 from cloned human NET expressed in HEK293 cells; type: cell-based
Rattus norvegicus [4] = experiment: Effect on behavioural activity in ip dosed rat assessed as cocaine-induced lever response pretreated with cocaine by drug-discrimination studies; type: functional
Rattus norvegicus [5] = experiment: Effect on behavioural activity in rat assessed as cocaine-induced lever response at 2.5 mg/kg, po pretreated with cocaine for 45 mins by drug-discrimination studies; type: functional
Rattus norvegicus [6] = experiment: Effect on behavioural activity in rat assessed as cocaine-induced lever response at 2.5 mg/kg, po pretreated with cocaine for 90 mins by drug-discrimination studies; type: functional
Rattus norvegicus [7] = experiment: Effect on behavioural activity in rat assessed as cocaine-induced lever response at 2.5 mg/kg, po pretreated with cocaine for 180 mins by drug-discrimination studies; type: functional
Rattus norvegicus [8] = experiment: Effect on behavioural activity in rat assessed as cocaine-induced lever response at 2.5 mg/kg, po pretreated with cocaine for 360 mins by drug-discrimination studies; type: functional
Rattus norvegicus [9] = experiment: Effect on behavioural activity in rat assessed as cocaine-induced lever response at 5 mg/kg, po pretreated with cocaine for 45 mins by drug-discrimination studies; type: functional
Rattus norvegicus [10] = experiment: Effect on behavioural activity in rat assessed as cocaine-induced lever response at 5 mg/kg, po pretreated with cocaine for 90 mins by drug-discrimination studies; type: functional
Rattus norvegicus [11] = experiment: Effect on behavioural activity in rat assessed as cocaine-induced lever response at 5 mg/kg, po pretreated with cocaine for 180 mins by drug-discrimination studies; type: functional
Rattus norvegicus [12] = experiment: Effect on behavioural activity in rat assessed as cocaine-induced lever response at 5 mg/kg, po pretreated with cocaine for 360 mins by drug-discrimination studies; type: functional
Rattus norvegicus [13] = experiment: Effect on behavioural activity in rat assessed as cocaine-induced lever response at 10 mg/kg, po pretreated with cocaine for 45 mins by drug-discrimination studies; type: functional
Rattus norvegicus [14] = experiment: Effect on behavioural activity in rat assessed as cocaine-induced lever response at 10 mg/kg, po pretreated with cocaine for 90 mins by drug-discrimination studies; type: functional
Rattus norvegicus [15] = experiment: Effect on behavioural activity in rat assessed as cocaine-induced lever response at 10 mg/kg, po pretreated with cocaine for 180 mins by drug-discrimination studies; type: functional
Rattus norvegicus [16] = experiment: Effect on behavioural activity in rat assessed as cocaine-induced lever response at 10 mg/kg, po pretreated with cocaine for 360 mins by drug-discrimination studies; type: functional
Rattus norvegicus [17] = experiment: Effect on behavioural activity in rat assessed as cocaine-induced lever response at 25 mg/kg, po pretreated with cocaine for 45 mins by drug-discrimination studies; type: functional
Rattus norvegicus [18] = experiment: Effect on behavioural activity in rat assessed as cocaine-induced lever response at 25 mg/kg, po pretreated with cocaine for 90 mins by drug-discrimination studies; type: functional
Rattus norvegicus [19] = experiment: Effect on behavioural activity in rat assessed as cocaine-induced lever response at 25 mg/kg, po pretreated with cocaine for 180 mins by drug-discrimination studies; type: functional
Rattus norvegicus [20] = experiment: Effect on behavioural activity in rat assessed as cocaine-induced lever response at 25 mg/kg, po pretreated with cocaine for 360 mins by drug-discrimination studies; type: functional
Rattus norvegicus [21] = experiment: Effect on behavioural activity in rat assessed as cocaine-induced lever response at 50 mg/kg, po pretreated with cocaine for 45 mins by drug-discrimination studies; type: functional
Rattus norvegicus [22] = experiment: Effect on behavioural activity in rat assessed as cocaine-induced lever response at 50 mg/kg, po pretreated with cocaine for 90 mins by drug-discrimination studies; type: functional
Rattus norvegicus [23] = experiment: Effect on behavioural activity in rat assessed as cocaine-induced lever response at 50 mg/kg, po pretreated with cocaine for 180 mins by drug-discrimination studies; type: functional
Rattus norvegicus [24] = experiment: Effect on behavioural activity in rat assessed as cocaine-induced lever response at 50 mg/kg, po pretreated with cocaine for 360 mins by drug-discrimination studies; type: functional
Mus musculus [25] = experiment: Antidepressant activity in ip dosed mouse assessed as stimulation of locomotor activity; type: functional
Mus musculus [26] = experiment: Antidepressant activity in ip dosed mouse assessed as stimulation of locomotor activity relative to cocaine; type: functional
Mus musculus [27] = experiment: Antidepressant activity in ip dosed mouse assessed as time to reach peak stimulation of locomotor activity; type: functional
Mus musculus [28] = experiment: Antidepressant activity in ip dosed mouse assessed as duration of locomotor activity; type: functional
Rattus norvegicus [29] = experiment: Effect on behavioural activity in rat assessed as cocaine-induced lever response at 2.5 mg/kg, ip pretreated with cocaine for 15 mins by drug-discrimination studies; type: functional; details: route intraperitoneal
Rattus norvegicus [30] = experiment: Effect on behavioural activity in rat assessed as cocaine-induced lever response at 5 mg/kg, ip pretreated with cocaine for 15 mins by drug-discrimination studies; type: functional; details: route intraperitoneal
Rattus norvegicus [31] = experiment: Effect on behavioural activity in rat assessed as cocaine-induced lever response at 10 mg/kg, ip pretreated with cocaine for 15 mins by drug-discrimination studies; type: functional; details: route intraperitoneal
Rattus norvegicus [32] = experiment: Effect on behavioural activity in rat assessed as cocaine-induced lever response at 25 mg/kg, ip pretreated with cocaine for 15 mins by drug-discrimination studies; type: functional; details: route intraperitoneal
Rattus norvegicus [33] = experiment: Effect on behavioural activity in po dosed rat assessed as cocaine-induced lever response pretreated with cocaine by drug-discrimination studies; type: functional
Rattus norvegicus [34] = experiment: Effect on behavioural activity in rat assessed as cocaine-induced lever response at 2.5 mg/kg, ip pretreated with cocaine for 30 mins by drug-discrimination studies; type: functional; details: route intraperitoneal
Rattus norvegicus [35] = experiment: Effect on behavioural activity in rat assessed as cocaine-induced lever response at 5 mg/kg, ip pretreated with cocaine for 30 mins by drug-discrimination studies; type: functional; details: route intraperitoneal
Rattus norvegicus [36] = experiment: Effect on behavioural activity in rat assessed as cocaine-induced lever response at 10 mg/kg, ip pretreated with cocaine for 30 mins by drug-discrimination studies; type: functional; details: route intraperitoneal
Rattus norvegicus [37] = experiment: Effect on behavioural activity in rat assessed as cocaine-induced lever response at 25 mg/kg, ip pretreated with cocaine for 30 mins by drug-discrimination studies; type: functional; details: route intraperitoneal
Rattus norvegicus [38] = experiment: Effect on behavioural activity in rat assessed as cocaine-induced lever response at 50 mg/kg, ip pretreated with cocaine for 15 mins by drug-discrimination studies; type: functional; details: route intraperitoneal
[39] = biological target: T1, Sodium-dependent serotonin transporter; experiment: Inhibition of [3H]serotonin reuptake at human SERT expressed in HEK293 cells; type: cell-based

T1 sequence (P31645 whole entry): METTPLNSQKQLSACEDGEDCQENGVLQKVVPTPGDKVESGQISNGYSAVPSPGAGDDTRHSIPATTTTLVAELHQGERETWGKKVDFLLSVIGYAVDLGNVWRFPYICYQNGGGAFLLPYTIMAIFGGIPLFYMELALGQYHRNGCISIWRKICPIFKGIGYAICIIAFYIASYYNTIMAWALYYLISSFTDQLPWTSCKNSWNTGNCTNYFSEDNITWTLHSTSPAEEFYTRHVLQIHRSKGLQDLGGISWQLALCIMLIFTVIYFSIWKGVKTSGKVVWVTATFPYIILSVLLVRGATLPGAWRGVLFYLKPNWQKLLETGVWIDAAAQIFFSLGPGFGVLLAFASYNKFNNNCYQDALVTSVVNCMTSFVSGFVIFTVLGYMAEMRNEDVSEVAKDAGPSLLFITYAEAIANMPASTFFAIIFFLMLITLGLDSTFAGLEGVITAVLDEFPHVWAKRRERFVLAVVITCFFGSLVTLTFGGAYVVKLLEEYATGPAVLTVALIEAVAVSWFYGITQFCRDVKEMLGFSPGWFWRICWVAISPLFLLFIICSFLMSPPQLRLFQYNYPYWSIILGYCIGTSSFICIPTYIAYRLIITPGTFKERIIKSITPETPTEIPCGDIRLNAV
Sodium-dependent noradrenaline transporter, sequence (P23975 whole entry): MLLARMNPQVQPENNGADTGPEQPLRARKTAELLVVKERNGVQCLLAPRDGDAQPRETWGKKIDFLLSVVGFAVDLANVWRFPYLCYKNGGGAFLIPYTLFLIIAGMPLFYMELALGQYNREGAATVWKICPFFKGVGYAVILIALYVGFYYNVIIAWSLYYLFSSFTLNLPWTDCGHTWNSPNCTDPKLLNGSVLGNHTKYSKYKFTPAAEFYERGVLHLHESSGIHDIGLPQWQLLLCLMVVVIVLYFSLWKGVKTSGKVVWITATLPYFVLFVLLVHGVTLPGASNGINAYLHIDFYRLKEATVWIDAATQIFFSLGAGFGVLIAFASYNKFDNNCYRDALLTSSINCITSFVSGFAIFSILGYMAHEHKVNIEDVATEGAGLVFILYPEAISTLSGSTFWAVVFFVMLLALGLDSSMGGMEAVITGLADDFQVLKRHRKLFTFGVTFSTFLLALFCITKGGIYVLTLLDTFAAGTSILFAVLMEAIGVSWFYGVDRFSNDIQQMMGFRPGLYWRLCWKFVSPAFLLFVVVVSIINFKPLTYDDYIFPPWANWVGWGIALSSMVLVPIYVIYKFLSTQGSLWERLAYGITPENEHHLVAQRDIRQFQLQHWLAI
Sodium-dependent dopamine transporter, sequence (Q01959 whole entry): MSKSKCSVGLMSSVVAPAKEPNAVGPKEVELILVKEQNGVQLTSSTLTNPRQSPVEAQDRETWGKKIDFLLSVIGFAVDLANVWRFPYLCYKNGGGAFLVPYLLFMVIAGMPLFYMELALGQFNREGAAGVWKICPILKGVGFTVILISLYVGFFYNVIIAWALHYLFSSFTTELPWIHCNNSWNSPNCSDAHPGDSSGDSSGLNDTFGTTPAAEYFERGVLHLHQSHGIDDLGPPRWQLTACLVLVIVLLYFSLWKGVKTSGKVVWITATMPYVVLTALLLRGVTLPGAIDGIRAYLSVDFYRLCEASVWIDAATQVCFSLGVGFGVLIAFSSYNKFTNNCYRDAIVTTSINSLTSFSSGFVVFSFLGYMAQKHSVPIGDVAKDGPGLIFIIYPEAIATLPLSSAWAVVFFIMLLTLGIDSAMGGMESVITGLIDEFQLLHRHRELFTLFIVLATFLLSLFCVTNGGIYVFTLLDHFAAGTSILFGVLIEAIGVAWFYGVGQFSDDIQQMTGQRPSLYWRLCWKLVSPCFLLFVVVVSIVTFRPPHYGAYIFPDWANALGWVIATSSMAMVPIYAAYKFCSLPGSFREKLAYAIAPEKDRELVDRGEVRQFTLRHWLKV

CC1C(=O)c2cc(Cl)ccc2CN1C(C)(C)C (stereo not drawn)
Ki [1]: > 10 µM
Ki [2]: > 10 µM
Ki [3]: > 10 µM

CC(NC(C)(C)C)C(=O)c1ccccc1 (stereo not drawn)
ED50 (Rattus norvegicus [4]): 1 mg/kg
Activity (Rattus norvegicus [5]): 6%
Activity (Rattus norvegicus [6]): 1%
Activity (Rattus norvegicus [7]): 0%
Activity (Rattus norvegicus [8]): 0%
Activity (Rattus norvegicus [9]): 0%
Activity (Rattus norvegicus [10]): 0%
Activity (Rattus norvegicus [11]): 33%
Activity (Rattus norvegicus [12]): 0%
Activity (Rattus norvegicus [13]): 0%
Activity (Rattus norvegicus [14]): 0%
Activity (Rattus norvegicus [15]): 3%
Activity (Rattus norvegicus [16]): 0%
Activity (Rattus norvegicus [17]): 51%
Activity (Rattus norvegicus [18]): 33%
Activity (Rattus norvegicus [19]): 20%
Activity (Rattus norvegicus [20]): 34%
Activity (Rattus norvegicus [21]): 83%
Activity (Rattus norvegicus [22]): 33%
Activity (Rattus norvegicus [23]): 50%
Activity (Rattus norvegicus [24]): 4%
Ki [2]: > 10 µM
ED50 (Mus musculus [25]): 11.2 mg/kg
Activity (Mus musculus [26]): 95%
Time to peak locomotor stimulation (Mus musculus [27]): 0 min
Time (Mus musculus [28]): 120 min
Activity (Rattus norvegicus [29]): 16%
Activity (Rattus norvegicus [30]): 32.8%
Activity (Rattus norvegicus [31]): 83.3%
Activity (Rattus norvegicus [32]): 83.4%
ED50 (Rattus norvegicus [33]): 25.2 mg/kg

CCCCC(NC(C)(C)C)C(=O)c1cccc(Cl)c1 (stereo not drawn)
ED50 (Rattus norvegicus [4]): 10 mg/kg
Activity (Rattus norvegicus [9]): 17%
Activity (Rattus norvegicus [10]): 0%
Activity (Rattus norvegicus [11]): 26%
Activity (Rattus norvegicus [12]): 0%
Activity (Rattus norvegicus [13]): 0%
Activity (Rattus norvegicus [14]): 0%
Activity (Rattus norvegicus [15]): 29%
Activity (Rattus norvegicus [16]): 0%
Activity (Rattus norvegicus [17]): 0%
Activity (Rattus norvegicus [18]): 0%
Activity (Rattus norvegicus [19]): 0%
Activity (Rattus norvegicus [20]): 0%
Activity (Rattus norvegicus [21]): 83%
Activity (Rattus norvegicus [22]): 17%
Activity (Rattus norvegicus [23]): 17%
Activity (Rattus norvegicus [24]): 0%
Ki [2]: > 10 µM
ED50 (Mus musculus [25]): 10.2 mg/kg
Activity (Mus musculus [26]): 136%
Time to peak locomotor stimulation (Mus musculus [27]): 0 min
Time (Mus musculus [28]): 40 min
ED50 (Rattus norvegicus [33]): 46.9 mg/kg
Activity (Rattus norvegicus [34]): 0%
Activity (Rattus norvegicus [35]): 17.2%
Activity (Rattus norvegicus [36]): 66.6%
Activity (Rattus norvegicus [37]): 100%

CC(NC(C)(C)C)C(=O)c1cc(Cl)cc(Cl)c1 (stereo not drawn)
Ki [1]: > 10 µM
Ki [2]: > 10 µM
Ki [3]: > 10 µM

CC(C(=O)c1cccc(Cl)c1)N(C)C(C)(C)C (stereo not drawn)
Ki [2]: > 10 µM
Ki [3]: > 10 µM
ED50 (Mus musculus [25]): 11.7 mg/kg
Activity (Mus musculus [26]): 95%
Time to peak locomotor stimulation (Mus musculus [27]): 80 min
Time (Mus musculus [28]): 200 min
Activity (Rattus norvegicus [31]): 49.4%
Activity (Rattus norvegicus [32]): 75%
Activity (Rattus norvegicus [38]): 66.7%

CCN(CC)C(C)C(=O)c1cccc(Cl)c1 (stereo not drawn)
ED50 (Rattus norvegicus [4]): 3.2 mg/kg
Ki [2]: > 10 µM
Activity (Mus musculus [26]): 90%
Time to peak locomotor stimulation (Mus musculus [27]): 20 min
Time (Mus musculus [28]): 130 min
Activity (Rattus norvegicus [29]): 0%
Activity (Rattus norvegicus [30]): 16.7%
Activity (Rattus norvegicus [31]): 98.6%
Activity (Rattus norvegicus [32]): 74.8%

CC(NC(C)(C)C)C(O)c1ccccc1 (racemic)
Ki [1]: > 10 µM
Ki [2]: 4 µM
Ki [3]: > 10 µM
IC50 [39]: 1.24 µM
Activity (Mus musculus [26]): 41%
Time to peak locomotor stimulation (Mus musculus [27]): 150 min
Time (Mus musculus [28]): 390 min

COC(=O)[C@H]1[C@@H](OC(=O)c2ccccc2)C[C@@H]2CC[C@H]1N2C [COCAINE]
ED50 (Rattus norvegicus [4]): 5.9 mg/kg
ED50 (Mus musculus [25]): 7.8 mg/kg
Time to peak locomotor stimulation (Mus musculus [27]): 0 min
Time (Mus musculus [28]): 40 min
